Where two headings read alike, the source gives them in different places.
How the values were obtained:
EKVX = assay: NCI-60 panel cell growth screen; assay type: cell-based, human; conditions: EKVX (NSCLC)
AKT = assay: Immunoblot of AKT phosphorylation in MM cells; assay type: cell-based; conditions: DT97 500 nm or 1 uM for 48 h
NCI-H332M = assay: NCI-60 panel cell growth screen; assay type: cell-based, human; conditions: NCI-H332M (NSCLC)
NCI-H226 = assay: NCI-60 panel cell growth screen; assay type: cell-based, human; conditions: NCI-H226 (NSCLC)
K-562 = assay: NCI-60 panel cell growth screen; assay type: cell-based, human; conditions: K-562 (Leukemia)
HL-60 (TB) = HL-60 (TB) (Leukemia)
ERBB4 = ERBB4 (Homo sapiens, UniProt Q15303); assay: Kinase inhibitory profile; assay type: biochemical; conditions: Other Clinically-relevant Kinases; 10-point concentration assays
Sequence of ERBB4 (Q15303 26-1308): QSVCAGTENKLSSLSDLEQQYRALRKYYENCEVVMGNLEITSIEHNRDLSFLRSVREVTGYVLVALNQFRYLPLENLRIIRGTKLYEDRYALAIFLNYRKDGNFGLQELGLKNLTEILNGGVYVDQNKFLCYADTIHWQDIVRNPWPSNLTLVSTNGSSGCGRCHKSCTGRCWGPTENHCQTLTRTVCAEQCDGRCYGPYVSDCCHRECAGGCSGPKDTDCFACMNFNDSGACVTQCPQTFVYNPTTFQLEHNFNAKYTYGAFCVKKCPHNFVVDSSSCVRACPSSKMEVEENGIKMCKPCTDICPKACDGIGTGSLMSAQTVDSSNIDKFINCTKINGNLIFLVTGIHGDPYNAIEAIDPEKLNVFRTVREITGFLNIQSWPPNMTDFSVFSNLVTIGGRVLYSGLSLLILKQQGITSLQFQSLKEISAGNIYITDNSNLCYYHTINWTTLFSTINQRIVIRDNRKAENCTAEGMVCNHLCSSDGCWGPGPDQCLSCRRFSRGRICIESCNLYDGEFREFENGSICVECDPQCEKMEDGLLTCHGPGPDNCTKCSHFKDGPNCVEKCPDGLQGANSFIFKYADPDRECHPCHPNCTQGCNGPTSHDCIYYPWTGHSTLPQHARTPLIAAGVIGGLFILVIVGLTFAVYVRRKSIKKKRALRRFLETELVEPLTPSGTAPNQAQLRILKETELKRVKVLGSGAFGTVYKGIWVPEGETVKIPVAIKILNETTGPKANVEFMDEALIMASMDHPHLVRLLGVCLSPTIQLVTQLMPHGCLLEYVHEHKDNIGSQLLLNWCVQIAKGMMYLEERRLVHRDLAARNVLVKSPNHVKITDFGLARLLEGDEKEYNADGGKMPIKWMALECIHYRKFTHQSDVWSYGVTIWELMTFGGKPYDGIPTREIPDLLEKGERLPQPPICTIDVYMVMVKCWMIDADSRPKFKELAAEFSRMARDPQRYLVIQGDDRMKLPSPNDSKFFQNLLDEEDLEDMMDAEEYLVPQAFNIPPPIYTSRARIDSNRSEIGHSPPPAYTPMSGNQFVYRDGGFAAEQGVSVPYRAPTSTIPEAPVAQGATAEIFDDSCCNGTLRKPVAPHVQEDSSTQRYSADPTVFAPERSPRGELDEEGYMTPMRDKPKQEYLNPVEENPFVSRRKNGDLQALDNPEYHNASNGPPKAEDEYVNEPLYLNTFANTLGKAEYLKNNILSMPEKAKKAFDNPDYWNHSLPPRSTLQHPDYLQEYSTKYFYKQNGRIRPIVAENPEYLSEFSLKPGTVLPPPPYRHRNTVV

[1] = system: Myeloma/ Leukemia/ Lymphoma; assay: NCI-60 panel cell growth screen (Figure 6); assay type: cell-based, human
COLO205 = assay: NCI-60 panel cell growth screen; assay type: cell-based, human; conditions: COLO205 (Colon cancer)
RPMI-8226 = assay: NCI-60 panel cell growth screen; assay type: cell-based, human; conditions: RPMI-8226 (Leukemia)
NCI-H460 = assay: NCI-60 panel cell growth screen; assay type: cell-based, human; conditions: NCI-H460 (NSCLC)
PKC2β = PKC2β (Homo sapiens, UniProt O00750); assay: Kinase inhibitory profile; assay type: biochemical; conditions: Class II PI3Ks; 10-point concentration assays
Sequence of PKC2β (O00750 whole entry): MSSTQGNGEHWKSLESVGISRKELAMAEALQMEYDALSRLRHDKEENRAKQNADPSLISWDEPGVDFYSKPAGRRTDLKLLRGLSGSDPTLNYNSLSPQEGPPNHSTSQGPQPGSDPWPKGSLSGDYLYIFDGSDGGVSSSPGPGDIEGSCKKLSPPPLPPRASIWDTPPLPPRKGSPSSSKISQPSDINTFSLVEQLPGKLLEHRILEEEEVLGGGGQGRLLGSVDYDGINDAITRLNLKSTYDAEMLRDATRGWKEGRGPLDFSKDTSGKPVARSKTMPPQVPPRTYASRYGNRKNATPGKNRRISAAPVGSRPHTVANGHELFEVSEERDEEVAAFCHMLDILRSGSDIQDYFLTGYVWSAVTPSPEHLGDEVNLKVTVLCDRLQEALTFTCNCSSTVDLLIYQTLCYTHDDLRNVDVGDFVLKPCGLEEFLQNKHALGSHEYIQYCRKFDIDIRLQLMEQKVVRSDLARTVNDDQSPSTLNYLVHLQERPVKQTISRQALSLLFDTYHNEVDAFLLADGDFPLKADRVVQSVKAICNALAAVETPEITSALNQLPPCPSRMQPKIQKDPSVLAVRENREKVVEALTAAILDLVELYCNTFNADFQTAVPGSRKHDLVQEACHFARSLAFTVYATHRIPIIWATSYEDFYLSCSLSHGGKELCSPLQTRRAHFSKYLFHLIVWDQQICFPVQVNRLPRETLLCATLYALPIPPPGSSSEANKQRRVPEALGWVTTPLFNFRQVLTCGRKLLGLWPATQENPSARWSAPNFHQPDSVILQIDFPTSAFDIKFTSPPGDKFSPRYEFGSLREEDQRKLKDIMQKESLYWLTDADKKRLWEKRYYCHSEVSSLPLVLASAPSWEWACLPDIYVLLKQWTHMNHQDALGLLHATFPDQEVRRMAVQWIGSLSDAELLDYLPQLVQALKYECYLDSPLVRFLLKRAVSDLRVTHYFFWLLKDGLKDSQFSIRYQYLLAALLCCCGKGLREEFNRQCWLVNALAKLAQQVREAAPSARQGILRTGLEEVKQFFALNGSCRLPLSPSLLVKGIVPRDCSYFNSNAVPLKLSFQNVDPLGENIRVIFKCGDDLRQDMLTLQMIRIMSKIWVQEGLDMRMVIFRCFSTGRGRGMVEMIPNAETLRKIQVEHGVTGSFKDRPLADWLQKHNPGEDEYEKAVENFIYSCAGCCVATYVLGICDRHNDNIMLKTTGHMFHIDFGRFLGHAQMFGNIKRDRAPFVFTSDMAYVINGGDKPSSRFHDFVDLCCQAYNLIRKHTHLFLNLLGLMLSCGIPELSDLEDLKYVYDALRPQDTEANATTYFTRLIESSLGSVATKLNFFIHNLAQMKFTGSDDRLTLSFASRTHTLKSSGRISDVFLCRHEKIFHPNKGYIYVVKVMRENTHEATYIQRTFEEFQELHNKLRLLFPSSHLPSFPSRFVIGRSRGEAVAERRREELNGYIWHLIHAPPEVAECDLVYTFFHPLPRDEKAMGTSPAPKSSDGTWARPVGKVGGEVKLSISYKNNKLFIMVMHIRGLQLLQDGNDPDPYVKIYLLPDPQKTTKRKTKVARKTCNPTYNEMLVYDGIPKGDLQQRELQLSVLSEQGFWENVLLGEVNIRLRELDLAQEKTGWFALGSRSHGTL

HCT-116 = assay: NCI-60 panel cell growth screen; assay type: cell-based, human; conditions: HCT-116 (Colon cancer)
mTOR = mTOR (Homo sapiens, UniProt P42345); assay: Kinase inhibitory profile; assay type: biochemical; conditions: Class IV PI3Ks; 10-point concentration assays
SF-295 = assay: NCI-60 panel cell growth screen; assay type: cell-based, human; conditions: SF-295 (CNS Cancer)
HOP-62 = assay: NCI-60 panel cell growth screen; assay type: cell-based, human; conditions: HOP-62 (NSCLC)
HCC-2998 = assay: NCI-60 panel cell growth screen; assay type: cell-based, human; conditions: HCC-2998 (Colon cancer)
SF-539 = assay: NCI-60 panel cell growth screen; assay type: cell-based, human; conditions: SF-539 (CNS Cancer)
HCT-15 = assay: NCI-60 panel cell growth screen; assay type: cell-based, human; conditions: HCT-15 (Colon cancer)
p110-α = p110-α (Homo sapiens, UniProt P42336); assay: Kinase inhibitory profile / PIP3 production; parameters: Inhibitory profile (kinase inhibition): key to the marks not given beside the values
Sequence of p110-α (P42336 whole entry): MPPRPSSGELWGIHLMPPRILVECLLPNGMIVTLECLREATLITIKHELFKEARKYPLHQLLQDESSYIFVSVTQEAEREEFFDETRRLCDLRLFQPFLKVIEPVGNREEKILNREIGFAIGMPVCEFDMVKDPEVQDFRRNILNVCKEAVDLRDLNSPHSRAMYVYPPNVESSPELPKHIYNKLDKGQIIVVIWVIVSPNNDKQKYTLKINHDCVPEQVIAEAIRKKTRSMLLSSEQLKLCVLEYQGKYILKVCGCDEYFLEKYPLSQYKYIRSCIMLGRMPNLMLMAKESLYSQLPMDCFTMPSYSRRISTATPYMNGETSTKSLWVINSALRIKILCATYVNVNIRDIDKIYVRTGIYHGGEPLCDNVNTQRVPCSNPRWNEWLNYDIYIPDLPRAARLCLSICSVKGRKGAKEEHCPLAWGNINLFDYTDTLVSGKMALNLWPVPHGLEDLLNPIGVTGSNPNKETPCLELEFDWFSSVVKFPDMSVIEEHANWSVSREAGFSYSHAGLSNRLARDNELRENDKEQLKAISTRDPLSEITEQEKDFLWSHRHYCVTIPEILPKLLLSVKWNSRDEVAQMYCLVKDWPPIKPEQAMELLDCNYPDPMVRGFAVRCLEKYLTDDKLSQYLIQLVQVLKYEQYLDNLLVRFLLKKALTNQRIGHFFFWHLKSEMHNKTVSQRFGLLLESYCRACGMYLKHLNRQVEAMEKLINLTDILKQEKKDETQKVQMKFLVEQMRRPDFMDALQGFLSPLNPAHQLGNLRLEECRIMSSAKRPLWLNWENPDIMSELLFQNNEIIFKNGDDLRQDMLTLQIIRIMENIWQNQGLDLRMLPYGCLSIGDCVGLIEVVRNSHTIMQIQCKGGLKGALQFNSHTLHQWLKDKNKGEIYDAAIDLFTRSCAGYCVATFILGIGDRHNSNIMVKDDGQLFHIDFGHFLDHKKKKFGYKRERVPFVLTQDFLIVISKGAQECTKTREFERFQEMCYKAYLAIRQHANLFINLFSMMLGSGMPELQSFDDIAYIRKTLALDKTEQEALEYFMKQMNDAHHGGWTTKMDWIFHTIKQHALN
Sequence of p110-α (P27986 whole entry partner): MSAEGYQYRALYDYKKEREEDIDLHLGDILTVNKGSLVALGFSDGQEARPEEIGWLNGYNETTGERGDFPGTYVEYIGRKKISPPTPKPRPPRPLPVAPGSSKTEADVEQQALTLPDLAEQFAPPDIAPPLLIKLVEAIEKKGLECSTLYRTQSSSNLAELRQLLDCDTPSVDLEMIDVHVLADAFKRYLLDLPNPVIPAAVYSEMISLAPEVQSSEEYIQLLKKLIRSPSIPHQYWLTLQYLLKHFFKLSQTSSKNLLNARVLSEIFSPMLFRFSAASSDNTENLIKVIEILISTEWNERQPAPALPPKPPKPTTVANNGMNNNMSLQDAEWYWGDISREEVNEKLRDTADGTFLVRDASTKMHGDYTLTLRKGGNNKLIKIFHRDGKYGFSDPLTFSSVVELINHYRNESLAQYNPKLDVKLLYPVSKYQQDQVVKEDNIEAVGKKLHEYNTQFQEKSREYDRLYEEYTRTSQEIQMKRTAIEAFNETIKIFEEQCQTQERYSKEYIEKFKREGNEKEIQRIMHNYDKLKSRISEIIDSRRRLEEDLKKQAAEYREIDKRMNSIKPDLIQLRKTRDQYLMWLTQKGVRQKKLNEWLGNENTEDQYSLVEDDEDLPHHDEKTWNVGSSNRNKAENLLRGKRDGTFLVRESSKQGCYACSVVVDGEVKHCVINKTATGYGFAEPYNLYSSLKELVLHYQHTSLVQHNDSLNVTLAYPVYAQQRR

PKCγ = assay: Kinase inhibitory profile; assay type: biochemical; conditions: Class II PI3Ks; 10-point concentration assays
[2] = read-out: LC50 (the source's name)

N-[4-hydroxy-3-(8-quinolinylthio)-1-naphthyl]benzenesulfonamide [DT97]
GI50 (EKVX): 1010 nM
TGI (EKVX): 8.55E-6
Percent Growth (EKVX; log concentration −4.0): −99%
Percent Growth (EKVX; log concentration −5.0): −4%
Percent Growth (EKVX; log concentration −6.0): 50%
Percent Growth (EKVX; log concentration −7.0): 93%
Percent Growth (EKVX; log concentration −8.0): 97%
phosphorylation of AKT at Ser308/Thr473 (AKT): reduced the phosphorylation
GI50 (NCI-H332M): 2310 nM
LC50 (NCI-H332M): 39400 nM
TGI (NCI-H332M): 1.37E-5
Percent Growth (NCI-H332M; log concentration −4.0): −94%
Percent Growth (NCI-H332M; log concentration −5.0): 15%
Percent Growth (NCI-H332M; log concentration −6.0): 70%
Percent Growth (NCI-H332M; log concentration −7.0): 94%
Percent Growth (NCI-H332M; log concentration −8.0): 94%
GI50 (NCI-H226): 2450 nM
TGI (NCI-H226): 2.54E-5
Percent Growth (NCI-H226; log concentration −4.0): −40%
Percent Growth (NCI-H226; log concentration −5.0): 27%
Percent Growth (NCI-H226; log concentration −6.0): 65%
Percent Growth (NCI-H226; log concentration −7.0): 94%
Percent Growth (NCI-H226; log concentration −8.0): 92%
GI50 (K-562): 929 nM
TGI (K-562): 1.65E-5
Percent Growth (K-562; log concentration −4.0): −12%
Percent Growth (K-562; log concentration −5.0): 3%
Percent Growth (K-562; log concentration −6.0): 48%
Percent Growth (K-562; log concentration −7.0): 111%
Percent Growth (K-562; log concentration −8.0): 108%
CC50 (K-562; [2]): > 100000 nM
GI50 (HL-60 (TB)): 487 nM
TGI (HL-60 (TB)): 4.69E-6
Percent Growth (HL-60 (TB); log concentration −4.0): −63%
Percent Growth (HL-60 (TB); log concentration −5.0): −15%
Percent Growth (HL-60 (TB); log concentration −6.0): 31%
Percent Growth (HL-60 (TB); log concentration −7.0): 93%
Percent Growth (HL-60 (TB); log concentration −8.0): 99%
CC50 (HL-60 (TB); read-out: LC50): 53100 nM
Inhibitory profile (kinase inhibition) (ERBB4): +
IC50 [1]: ~450 nM
GI50 (COLO205): 1710 nM
TGI (COLO205): 3.70E-6
Percent Growth (COLO205; log concentration −4.0): −59%
Percent Growth (COLO205; log concentration −5.0): −64%
Percent Growth (COLO205; log concentration −6.0): 85%
Percent Growth (COLO205; log concentration −7.0): 99%
Percent Growth (COLO205; log concentration −8.0): 94%
CC50 (COLO205; [2]): 8030 nM
GI50 (RPMI-8226): 2380 nM
TGI (RPMI-8226): 7.90E-6
Percent Growth (RPMI-8226; log concentration −4.0): −9%
Percent Growth (RPMI-8226; log concentration −5.0): −10%
Percent Growth (RPMI-8226; log concentration −6.0): 86%
Percent Growth (RPMI-8226; log concentration −7.0): 92%
Percent Growth (RPMI-8226; log concentration −8.0): 101%
CC50 (RPMI-8226; [2]): > 100000 nM
GI50 (NCI-H460): 499 nM
TGI (NCI-H460): 1.37E-5
Percent Growth (NCI-H460; log concentration −4.0): −48%
Percent Growth (NCI-H460; log concentration −5.0): 7%
Percent Growth (NCI-H460; log concentration −6.0): 29%
Percent Growth (NCI-H460; log concentration −7.0): 98%
Percent Growth (NCI-H460; log concentration −8.0): 101%
Inhibitory profile (kinase inhibition) (PKC2β): +
GI50 (HCT-116): 555 nM
TGI (HCT-116): 2.80E-6
Percent Growth (HCT-116; log concentration −4.0): −92%
Percent Growth (HCT-116; log concentration −5.0): −43%
Percent Growth (HCT-116; log concentration −6.0): 34%
Percent Growth (HCT-116; log concentration −7.0): 95%
Percent Growth (HCT-116; log concentration −8.0): 98%
CC50 (HCT-116; [2]): 14100 nM
Inhibitory profile (kinase inhibition) (mTOR): +
GI50 (SF-295): 2840 nM
TGI (SF-295): 1.50E-5
Percent Growth (SF-295; log concentration −4.0): −78%
Percent Growth (SF-295; log concentration −5.0): 17%
Percent Growth (SF-295; log concentration −6.0): 78%
Percent Growth (SF-295; log concentration −7.0): 94%
Percent Growth (SF-295; log concentration −8.0): 92%
CC50 (SF-295; [2]): 50700 nM
GI50 (HOP-62): 1010 nM
TGI (HOP-62): 2.54E-5
Percent Growth (HOP-62; log concentration −4.0): −37%
Percent Growth (HOP-62; log concentration −5.0): 26%
Percent Growth (HOP-62; log concentration −6.0): 50%
Percent Growth (HOP-62; log concentration −7.0): 95%
Percent Growth (HOP-62; log concentration −8.0): 93%
GI50 (HCC-2998): 4770 nM
TGI (HCC-2998): 1.91E-5
Percent Growth (HCC-2998; log concentration −4.0): −82%
Percent Growth (HCC-2998; log concentration −5.0): 32%
Percent Growth (HCC-2998; log concentration −6.0): 88%
Percent Growth (HCC-2998; log concentration −7.0): 106%
Percent Growth (HCC-2998; log concentration −8.0): 105%
CC50 (HCC-2998; [2]): 52400 nM
GI50 (SF-539): 957 nM
TGI (SF-539): 5.13E-6
Percent Growth (SF-539; log concentration −4.0): −86%
Percent Growth (SF-539; log concentration −5.0): −20%
Percent Growth (SF-539; log concentration −6.0): 49%
Percent Growth (SF-539; log concentration −7.0): 98%
Percent Growth (SF-539; log concentration −8.0): 93%
CC50 (SF-539; [2]): 28500 nM
GI50 (HCT-15): 464 nM
TGI (HCT-15): 2.50E-6
Percent Growth (HCT-15; log concentration −4.0): −70%
Percent Growth (HCT-15; log concentration −5.0): −40%
Percent Growth (HCT-15; log concentration −6.0): 27%
Percent Growth (HCT-15; log concentration −7.0): 97%
Percent Growth (HCT-15; log concentration −8.0): 100%
CC50 (HCT-15; [2]): 21200 nM
Inhibitory profile (kinase inhibition) (p110-α; Class I PI3Ks, 10-point concentration assays): ++
production of PIP3 (dose-dependent effect) (p110-α; p110-α isoform, Figure 4B): weaker activity
Inhibitory profile (kinase inhibition) (PKCγ): none

Source: PMC5122408, “High throughput chemical library screening identifies a novel p110-δ inhibitor that potentiates the anti-myeloma effect of bortezomib” (Oncotarget, 2016)
